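Method: 48-hour compound exposure of cells in 96-well plates, five concentrations, linear interpolation of endpoints. GI50 is the concentration that inhibits growth by half. TGI is the concentration that stops growth completely.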
What was measured:
Experiment in all cases: NCI tumour cell line growth inhibition, 48 h
[1] = tested on: SK-OV-3 ovarian
[2] = tested on: NCI/ADR-RES ovarian
[3] = tested on: MALME-3M melanoma
[4] = tested on: SNB-19 CNS
[5] = tested on: RPMI-8226 leukemia
[6] = tested on: PC-3 prostate
[7] = tested on: SK-MEL-5 melanoma
[8] = tested on: NCI-H23 lung
[9] = tested on: HOP-92 NSCLC
[10] = tested on: SF-295 CNS

SMILES	GI50 [1] [µM]	TGI [1] [µM]	GI50 [2] [µM]	TGI [2] [µM]	GI50 [3] [µM]	TGI [3] [µM]	GI50 [4] [µM]	TGI [4] [µM]	GI50 [5] [µM]	TGI [5] [µM]	GI50 [6] [µM]	TGI [6] [µM]	GI50 [7] [µM]	TGI [7] [µM]	GI50 [8] [µM]	TGI [8] [µM]	TGI [9] [µM]	TGI [10] [µM]	GI50 [9] [µM]	GI50 [10] [µM]
CC/C(=C(/c1ccc(OCCN(C)C)cc1)c1ccc(OC(=O)CCCCCCCCC(=O)c2c(C)[nH]c(/C=C3\N=C(c4ccc[nH]4)C=C3OC)c2C)cc1)c1ccccc1	> 100	> 100	31.7	> 100	40.7	> 100	12.1	50.7	3.75	> 100	5.86	> 100	1.61	3.2	48.4	> 100	–	–	–	–
COC(=O)C1=CC(=O)[C@@H]2CCCC[C@H]12	–	> 100	–	–	–	> 100	–	> 100	–	> 100	–	–	–	–	–	–	–	–	–	–
CSC1=Nc2ccccc2N=C(c2ccccc2)C1	–	> 100	–	–	–	> 100	–	> 100	–	–	–	–	–	> 100	–	> 100	85.3	> 100	–	–
COc1ccc(-c2cc(=O)c3cc(O)ccc3o2)c(OC)c1OC	–	99.1	–	–	–	> 100	–	> 100	–	32.8	–	–	–	–	–	> 100	98	69.2	–	–
COc1ccc2nc3ccccc3c(NCCN(CCCl)CCCl)c2c1	–	5.05	–	–	–	3.01	–	7.66	–	–	–	–	–	–	–	–	2.43	10	–	–
CC(=O)Nc1cc2c3c(cccc3c1)-c1ccccc1-2	26.5	84.3	26.1	> 100	–	–	40.2	> 100	–	–	14.8	> 100	> 100	> 100	38.5	> 100	44.8	22.6	17.8	5.13
COC(=O)C1=CCC2c3[nH]c4ccccc4c3CCN2C1 (stereo not drawn)	–	> 354	–	–	–	> 354	–	> 354	–	> 354	–	–	–	> 354	–	> 354	> 354	> 354	–	–
COc1cc2c(cc1-c1coc3cc(O)ccc3c1=O)OCO2	–	37.3	–	48.4	–	–	–	43.1	–	77.5	–	> 100	–	> 100	–	40.3	67.6	38.9	–	–
CC1=C(C(=O)Nc2ccc(C)cc2)C(c2cccc([N+](=O)[O-])c2)C(C(=O)Nc2ccc(C)cc2)=C(C)N1	–	> 100	–	–	–	77.2	–	> 100	–	–	–	–	–	44.3	–	70.4	–	82.3	–	–
CCOC(=O)C(=O)C(C#N)c1ccc(Cl)cc1 (stereo not drawn)	–	> 100	–	–	–	> 100	–	> 100	–	> 100	–	–	–	> 100	–	> 100	> 100	> 100	–	–
CC1=CC[C@@H](C(C)(C)O)C[C@@H]1O	–	> 5000	–	–	–	> 5000	–	> 5000	–	–	–	–	–	> 5000	–	> 5000	> 5000	> 5000	–	–
N#C/C(=C\c1ccc[nH]1)C(=O)c1ccccc1	–	> 100	–	–	–	> 100	–	> 100	–	> 100	–	–	–	> 100	–	> 100	> 100	> 100	–	–
COC(=O)c1cccc(NC(=O)c2ccc(NC3=C(Cl)C(=O)N(Cc4ccccc4)C3=O)cc2)c1	84	> 100	15.9	37.6	–	–	28.5	> 100	10.7	23.9	15.1	28.3	16.5	34	8.57	22.4	23.4	57.8	11	17.6
N#Cc1cccc(C2C(=O)c3ccc(C(=O)c4ccc5c(c4)C(=O)N(c4ccc(Oc6ccc(N7C(=O)c8ccc(C(=O)c9ccc%10c(c9)C(=O)N(c9cccc(C#N)c9)C%10=O)cc8C7=O)cc6)cc4)C5=O)cc3C2=O)c1 (stereo not drawn)	–	–	–	–	–	> 100	–	> 100	–	> 100	–	–	–	> 100	–	> 100	> 100	> 100	–	–
CC1(C)C(CC(=O)O)CCCC1CC(=O)O (stereo not drawn)	–	> 100	–	> 100	–	–	–	> 100	–	> 100	–	> 100	–	> 100	–	> 100	–	> 100	–	–
Clc1ccccc1C1SCc2nc3ccccc3n21 (stereo not drawn)	–	82.7	–	–	–	53.4	–	40.6	–	> 100	–	–	–	33.7	–	> 100	31.3	> 100	–	–
O=C1c2ccc3c4c(ccc(c24)C(=O)N1CCNCc1ccccc1)C(=O)N(CCNCc1ccccc1)C3=O	20.9	45.4	1.81	4.94	–	–	2.67	9.28	2	5.12	–	–	1.39	2.68	1.86	3.89	33.2	5.2	7.66	1.78
CCCCCCCCCCCCCCCCCC[S+](C)CC (stereo not drawn)	1.86	5.45	11.4	37.2	1.38	3.45	–	–	–	–	–	–	–	–	1.38	3.2	4.5	2.59	1.38	1.2
O=C(O)CCC1c2[nH]c3ccccc3c2CCN1Cc1ccccc1 (stereo not drawn)	–	> 100	–	–	–	> 100	–	> 100	–	–	–	–	–	> 100	–	> 100	> 100	> 100	–	–
CN1C2(c3ccccc3)C(C(=O)c3ccccc3)=C(C(=O)c3ccccc3)C1(c1ccccc1)c1c(-c3ccccc3)sc(-c3ccccc3)c12	–	> 100	–	–	–	> 100	–	> 100	–	> 100	–	–	–	> 100	–	> 100	> 100	> 100	–	–
C[C@]12CC[C@H]3[C@@H](CC[C@]4(O)C[C@@H](O[C@@H]5O[C@H](CO)[C@@H](O[C@@H]6OC[C@@H](O)[C@H](O)[C@H]6O)[C@H](O)[C@H]5O)CC[C@]34C=O)[C@@]1(O)CC[C@@H]2C1=CC(=O)OC1	1.75	7.69	0.999	2.4	1.49	3.45	2.53	9.27	1.9	14.6	0.78	3.57	1.22	2.88	0.839	2.71	–	6.27	–	1.7

SMILES	GI50 [1] [µM]	TGI [1] [µM]	GI50 [2] [µM]	TGI [2] [µM]	GI50 [3] [µM]	TGI [3] [µM]	GI50 [4] [µM]	TGI [4] [µM]	GI50 [5] [µM]	TGI [5] [µM]	GI50 [6] [µM]	TGI [6] [µM]	GI50 [7] [µM]	TGI [7] [µM]	GI50 [8] [µM]	TGI [8] [µM]	TGI [9] [µM]	TGI [10] [µM]	GI50 [9] [µM]	GI50 [10] [µM]
CC(=O)Nc1ccc(C2=N/C(=C\c3ccc(Cl)cc3)C(=O)O2)cc1	–	> 100	–	–	–	> 100	–	> 100	–	> 100	–	–	–	> 100	–	> 100	> 100	> 100	–	–
COC1C(=O)CCC2(CO2)C1(O)C1(C)OC1CC=C(C)C (stereo not drawn)	–	> 100	–	–	–	–	–	> 100	–	–	–	> 100	–	83.9	–	> 100	> 100	> 100	–	–
C[C@]12CCc3nn(-c4ccccc4)nc3C1CC[C@@H]1C2CC[C@]2(C)C(=O)CCC12 (stereo partly drawn)	–	> 100	–	–	–	> 100	–	> 100	–	> 100	–	–	–	> 100	–	> 100	> 100	> 100	–	–
O=C(Cc1nc2ccccc2o1)C(=O)Nc1ccc(Cl)cc1Cl	–	> 100	–	–	–	> 100	–	> 100	–	> 100	–	–	–	–	–	> 100	> 100	> 100	–	–
CC[As](CC)SCC1OC(OC(C)=O)C(OC(C)=O)C(OC(C)=O)C1OC(C)=O (stereo not drawn)	–	29.3	–	–	–	10.3	–	33.5	–	36.2	–	–	–	28.4	–	36.4	13.2	35.7	–	–
O=C(NN1C(=O)CSC1c1c(Cl)cccc1Cl)C(O)c1ccccc1 (stereo not drawn)	> 100	> 100	–	–	31.7	> 100	71.6	> 100	43.8	> 100	29.6	> 100	32.8	> 100	19.9	> 100	98.9	> 100	20.9	37.3
Fc1ccc(N=C2C=CC(=Nc3ccc(F)cc3)c3ccccc32)cc1	–	> 100	–	–	–	> 100	–	> 100	–	> 100	–	–	–	> 100	–	> 100	> 100	> 100	–	–
COc1ccc([C@@H]2OC(=O)C3C2C(=O)O[C@H]3c2ccc(OC)cc2)cc1 (stereo partly drawn)	–	> 100	–	–	–	–	–	> 100	–	> 100	–	–	–	–	–	> 100	–	> 100	–	–
CN(C)CCCCNc1ccc(NCCCCN(C)C)c2c1C(=O)c1c(O)ccc(O)c1C2=O	3.06	9.8	1.62	3.08	18.3	33.5	13.2	26	2.54	6.49	1.94	3.64	13.5	26.3	1.63	2.98	–	3.3	–	1.75
COc1cc(C(=O)NN=C2c3ccccc3-c3ccccc32)cc(OC)c1OC	4.12	> 100	2.06	11.7	2.45	16.7	6.56	43.5	3.5	> 100	2.72	25	2.65	18	3.94	41.4	–	7.13	–	1.99
N#CCCN(c1ccc(C=O)cc1)S(=O)(=O)c1ccccc1	–	> 100	–	–	–	> 100	–	> 100	–	> 100	–	–	–	> 100	–	–	–	> 100	–	–
COc1cc(N2CCC(N)CC2)ccc1Nc1ncc(Cl)c(-c2c[nH]c3ccccc23)n1	0.68	2.8	1.49	4.11	–	–	1.38	4.19	1.28	3.89	1	3.63	1.49	2.84	0.925	3.06	0.345	3.31	0.035	1.54
CCN(CC)C(=O)CC12CCCCC1=Nc1ccccc12 (stereo not drawn)	–	> 100	–	–	–	> 100	–	–	–	> 100	–	–	–	> 100	–	> 100	> 100	> 100	–	–
O=C(CC(=O)c1cccc([N+](=O)[O-])c1)C(=O)Nc1ccccc1	–	–	–	–	–	> 100	–	> 100	–	> 100	–	–	–	> 100	–	> 100	> 100	> 100	–	–
CCN(CC)CC(O)c1cc(-c2ccc(Cl)cc2)nc2c(C)c(Cl)ccc12 (stereo not drawn)	1.71	3.28	1.71	3.16	1.93	3.98	1.86	3.44	2.41	5.71	1.6	2.97	1.7	3.11	1.78	3.3	–	3.5	–	1.86
Cc1ccccc1-n1c(CCl)nc2ccc(Br)cc2c1=O	–	> 100	–	–	–	32.9	–	77.1	–	71.4	–	–	–	22.9	–	25.3	36	58.4	–	–
O=C(CC1(O)C(=O)Nc2ccccc21)c1ccccc1O (stereo not drawn)	–	> 100	–	–	–	> 100	–	> 100	–	> 100	–	–	–	> 100	–	> 100	> 100	> 100	–	–
CCc1ccccc1NC(=O)C(=O)C1C(=O)N(c2ccccc2)N=C1N (stereo not drawn)	–	–	–	–	–	> 100	–	> 100	–	> 100	–	–	–	> 100	–	> 100	> 100	> 100	–	–
CC1C(O)=C(O)c2ccccc2N1O (stereo not drawn)	–	> 100	–	–	–	> 100	–	> 100	–	> 100	–	–	–	> 100	–	> 100	> 100	> 100	–	–
CCn1ncc(N=O)c1N	–	–	–	> 100	–	–	–	> 100	–	> 100	–	> 100	–	> 100	–	> 100	–	> 100	–	–
CCN(/N=C1\CC2C=CCN(C2)C(=O)Cc2c1[nH]c1ccccc21)S(=O)(=O)c1ccc(C)cc1 (stereo not drawn)	–	–	–	–	–	> 100	–	> 100	–	> 100	–	–	–	> 100	–	> 100	–	> 100	–	–
